Laboratory results as given in ChEMBL document CHEMBL1201862, “PubChem BioAssay data set” (2004).
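Compound exposure: 48 hours, 5 concentrations, 96-well plates. Here, GI50 denotes the concentration required for 50% inhibition of growth.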 Active and inactive are the calls of the source. No stated cut-off is given here; in the data, active = GI50 up to about 1.1 µM and inactive = higher.

Columns and labels:
Assay in all cases: NCI tumour cell line growth inhibition, 48 h
[1] = tested on: A549
[2] = tested on: NCI-H226
[3] = tested on: RXF 393
[4] = tested on: UACC-257
[5] = tested on: MDA-MB-231
[6] = tested on: IGROV-1
[7] = tested on: Malme-3M
[8] = tested on: NCI-H460
[9] = tested on: CAKI-1
[10] = tested on: SR
[11] = tested on: CCRF-CEM
[12] = tested on: M14
[13] = tested on: T47D
[14] = tested on: HCT-116
[15] = tested on: MOLT-4
[16] = tested on: SW-620
[17] = tested on: 786-0
[18] = tested on: SK-MEL-2
[19] = tested on: MDA-N
[20] = tested on: U-251
[21] = tested on: NCI-H23
[22] = tested on: OVCAR-4
[23] = tested on: MDA-MB-435
[24] = tested on: OVCAR-3
[25] = tested on: Hs-578T
[26] = tested on: HOP-62
[27] = tested on: SK-MEL-28
[28] = tested on: MCF7
[29] = tested on: SN12C
[30] = tested on: OVCAR-8
[31] = tested on: HT-29
[32] = tested on: NCI/ADR-RES
[33] = tested on: SK-MEL-5
[34] = tested on: DU-145
[35] = tested on: COLO 205
[36] = tested on: SF-295
[37] = tested on: TK-10
[38] = tested on: UO-31
[39] = tested on: ACHN
[40] = tested on: NCI-H522
[41] = tested on: HL-60
[42] = tested on: PC-3
[43] = tested on: SNB-75
[44] = tested on: SK-OV-3
[45] = tested on: LOX IMVI
[46] = tested on: A498
[47] = tested on: KM12
[48] = tested on: SF-539
[49] = tested on: K562
[50] = tested on: EKVX
[51] = tested on: HCT-15
[52] = tested on: SNB-19
[53] = tested on: OVCAR-5
[54] = tested on: RPMI-8226
[55] = tested on: BT-549
[56] = tested on: SF-268
[57] = tested on: UACC-62
[58] = tested on: HOP-92

CC(SC(=S)N1CCOCC1)C(=O)Nc1nnc(-c2ccccc2)o1 (stereo not drawn)
GI50 [1]: 70 µM (inactive) | GI50 [2]: > 100 µM (inactive) | GI50 [3]: > 100 µM (inactive) | GI50 [4]: > 100 µM (inactive) | GI50 [5]: > 100 µM (inactive) | GI50 [6]: 99.1 µM (inactive) | GI50 [7]: > 100 µM (inactive) | GI50 [8]: > 100 µM (inactive) | GI50 [9]: > 100 µM (inactive) | GI50 [10]: 21.8 µM (inactive) | GI50 [11]: 4.23 µM (inactive) | GI50 [12]: > 100 µM (inactive) | GI50 [13]: 91.6 µM (inactive) | GI50 [14]: 93.3 µM (inactive) | GI50 [15]: 36.8 µM (inactive) | GI50 [16]: 51.6 µM (inactive) | GI50 [17]: 83.2 µM (inactive) | GI50 [18]: > 100 µM (inactive) | GI50 [19]: > 100 µM (inactive) | GI50 [20]: > 100 µM (inactive) | GI50 [21]: > 100 µM (inactive) | GI50 [22]: > 100 µM (inactive) | GI50 [23]: > 100 µM (inactive) | GI50 [24]: > 100 µM (inactive) | GI50 [25]: > 100 µM (inactive) | GI50 [26]: > 100 µM (inactive) | GI50 [27]: > 100 µM (inactive) | GI50 [28]: 60.1 µM (inactive) | GI50 [29]: 93.3 µM (inactive) | GI50 [30]: > 100 µM (inactive) | GI50 [31]: 61.1 µM (inactive) | GI50 [32]: 26.1 µM (inactive) | GI50 [33]: 46.7 µM (inactive) | GI50 [34]: > 100 µM (inactive) | GI50 [35]: > 100 µM (inactive) | GI50 [36]: 88.5 µM (inactive) | GI50 [37]: > 100 µM (inactive) | GI50 [38]: 53.2 µM (inactive) | GI50 [39]: 97.7 µM (inactive) | GI50 [40]: 39.8 µM (inactive) | GI50 [41]: 5.05 µM (inactive) | GI50 [42]: 57.1 µM (inactive) | GI50 [43]: > 100 µM (inactive) | GI50 [44]: > 100 µM (inactive) | GI50 [45]: 71.4 µM (inactive) | GI50 [46]: > 100 µM (inactive) | GI50 [47]: > 100 µM (inactive) | GI50 [48]: > 100 µM (inactive) | GI50 [49]: 55.1 µM (inactive) | GI50 [50]: > 100 µM (inactive) | GI50 [51]: 29.7 µM | GI50 [52]: > 100 µM (inactive) | GI50 [53]: > 100 µM (inactive) | GI50 [54]: 43.1 µM (inactive) | GI50 [55]: > 100 µM (inactive)

C(=N\c1cnc2ccccc2c1)/c1ccc2ccccc2n1
GI50 [1]: > 100 µM (inactive) | GI50 [2]: > 100 µM (inactive) | GI50 [3]: > 100 µM (inactive) | GI50 [4]: > 100 µM (inactive) | GI50 [5]: > 100 µM (inactive) | GI50 [6]: > 100 µM (inactive) | GI50 [7]: > 100 µM (inactive) | GI50 [8]: > 100 µM (inactive) | GI50 [9]: > 100 µM (inactive) | GI50 [10]: 24 µM (inactive) | GI50 [11]: 23.8 µM (inactive) | GI50 [56]: > 100 µM (inactive) | GI50 [12]: > 100 µM (inactive) | GI50 [13]: > 100 µM (inactive) | GI50 [14]: 35.6 µM (inactive) | GI50 [15]: 50 µM (inactive) | GI50 [16]: 64.1 µM (inactive) | GI50 [17]: > 100 µM (inactive) | GI50 [18]: > 100 µM (inactive) | GI50 [19]: > 100 µM (inactive) | GI50 [20]: 67.5 µM (inactive) | GI50 [21]: > 100 µM (inactive) | GI50 [22]: > 100 µM (inactive) | GI50 [23]: > 100 µM (inactive) | GI50 [24]: 27.7 µM (inactive) | GI50 [25]: > 100 µM (inactive) | GI50 [26]: > 100 µM (inactive) | GI50 [27]: > 100 µM (inactive) | GI50 [28]: 43 µM (inactive) | GI50 [57]: > 100 µM (inactive) | GI50 [58]: > 100 µM (inactive) | GI50 [29]: > 100 µM (inactive) | GI50 [30]: > 100 µM (inactive) | GI50 [31]: > 100 µM (inactive) | GI50 [32]: > 100 µM (inactive) | GI50 [33]: > 100 µM (inactive) | GI50 [34]: > 100 µM (inactive) | GI50 [35]: > 100 µM (inactive) | GI50 [36]: > 100 µM (inactive) | GI50 [37]: > 100 µM (inactive) | GI50 [38]: > 100 µM (inactive) | GI50 [39]: > 100 µM (inactive) | GI50 [40]: > 100 µM (inactive) | GI50 [41]: 53.3 µM (inactive) | GI50 [42]: > 100 µM (inactive) | GI50 [43]: > 100 µM (inactive) | GI50 [44]: > 100 µM (inactive) | GI50 [45]: 72.9 µM (inactive) | GI50 [46]: > 100 µM (inactive) | GI50 [47]: > 100 µM (inactive) | GI50 [48]: > 100 µM (inactive) | GI50 [49]: 52 µM (inactive) | GI50 [50]: > 100 µM (inactive) | GI50 [51]: 55.6 µM | GI50 [52]: > 100 µM (inactive) | GI50 [53]: > 100 µM (inactive) | GI50 [54]: 29.2 µM (inactive) | GI50 [55]: > 100 µM (inactive)
